# Assay results reported in publication PMC8674134, “Safety and efficacy of avapritinib in advanced systemic mastocytosis: the phase 1 EXPLORER trial” (Nature Medicine, 2021).
# Tested on: advanced systemic mastocytosis (AdvSM)
# Test: Centrally adjudicated response by mIWG-MRT-ECNM criteria (ORR, best response, time to response, C-finding improvement)
# Format: in vivo, human
# Text: The primary endpoints were MTD, RP2D and assessment of safety. Secondary endpoints included the ORR based on measurable C-finding responses per mIWG-MRT-ECNM criteria, which require 12-week confirmation of response. Responses in C-findings were centrally adjudicated by a Response Adjudication Committee (RAC) comprising a subset of study investigators (see below for further details and a list of RAC members). ORR included: CR or CRh (including complete resolution of all C-findings, elimination of marrow mast cell aggregates and serum tryptase <20 ng ml^−1); PR (resolution of ≥1 C-finding and ≥50% reduction in marrow mast cells and serum tryptase); and clinical improvement (resolution of ≥1 C-finding).
# The safety population included all enrolled patients and was used to report AEs and PROs (in those who completed the questionnaire). The dose-determining population included all patients in a cohort in part 1 who received ≥21 prescribed avapritinib doses in C1 and completed follow-up through C1, or experienced DLT. The determination of the MTD and RP2D were based on the dose-determining population. […] The AdvSM safety population was also used to report AEs and OS. […] The response-evaluable population was used to report adjudicated response rates and PFS. The PK population comprised all patients with sufficient plasma concentration–time data to reliably estimate the PK parameters of avapritinib.
# ORR was defined as the proportion of patients with a confirmed best response of CR, CRh, PR or clinical improvement by mIWG-MRT-ECNM consensus criteria. Time to CR/CRh/PR was defined as the time from the start of treatment to the time a CR/CRh/PR by mIWG-MRT-ECNM was first met. DOR was defined as the time from first documented response to the date of first documented progressive disease/loss of response or death due to any cause, whichever occurred first. OS was defined as the time from the start of treatment to the date of death. PFS was defined as the time from the start of treatment to the date of first documented progressive disease or death due to any cause, whichever occurred first. Progressive disease was defined per mIWG-MRT-ECNM criteria as worsening of ≥1 baseline C-finding confirmed for at least 4 weeks, or progression to acute myeloid leukemia.
# Primary ORR analysis was based on RAC-adjudicated responses in the response-evaluable population. ORR was estimated using frequency, percentage and two-sided 95% CIs based on the exact binomial distribution (Clopper–Pearson). Statistical testing on binomial proportion against a null of 28% was performed using one-sided α = 0.025. Wald test P value was presented. CR + CRh + PR rate was summarized similarly as ORR. Statistical testing on binomial proportion against a null of 17% was performed using one-sided α = 0.025.
# [1] = 53 response-evaluable patients, mIWG-MRT-ECNM
# [2] = Prior midostaurin exposure (n = 17)
# [3] = of 2 patients with C-finding at baseline, response-evaluable population (n = 53)
# [4] = of 18 patients with C-finding at baseline, response-evaluable population (n = 53)
# [5] = response-evaluable population (n = 53)
compound,measurement,setting,value
Cn1cc(-c2cc3c(N4CCN(c5ncc([C@@](C)(N)c6ccc(F)cc6)cn5)CC4)ncnn3c2)cn1 [avapritinib],Clinical improvement rate,53 response-evaluable patients,6%
same,Partial remission (PR) rate,53 response-evaluable patients,34%
same,CR or CRh rate,[1],36%
same,Overall response rate (ORR; CR/CRh/PR/CI),[1],75%
same,Best response CI (clinical improvement),ASM (n = 3),0 n (%)
same,Best response CR,ASM (n = 3),0 n (%)
same,Best response CR or CRh,ASM (n = 3),2 (67) n (%)
same,Best response CRh,ASM (n = 3),2 (67) n (%)
same,Best response NE (not evaluable),ASM (n = 3),0 n (%)
same,Best response PD,ASM (n = 3),0 n (%)
same,Best response PR,ASM (n = 3),1 (33) n (%)
same,Best response SD,ASM (n = 3),0 n (%)
same,ORR (CR + CRh + PR + CI),ASM (n = 3),3 (100) n (%)
same,Best response CI (clinical improvement),All AdvSM (n = 53),3 (6) n (%)
same,Best response CR,All AdvSM (n = 53),8 (15) n (%)
same,Best response CR or CRh,All AdvSM (n = 53),19 (36) n (%)
same,Best response CRh,All AdvSM (n = 53),11 (21) n (%)
same,Best response NE (not evaluable),All AdvSM (n = 53),1 (2) n (%)
same,Best response PD,All AdvSM (n = 53),0 n (%)
same,Best response PR,All AdvSM (n = 53),18 (34) n (%)
same,Best response SD,All AdvSM (n = 53),12 (23) n (%)
same,ORR (CR + CRh + PR + CI),All AdvSM (n = 53),40 (75) n (%)
same,Best response CI (clinical improvement),Any prior therapy (n = 32),2 (6) n (%)
same,Best response CR,Any prior therapy (n = 32),4 (13) n (%)
same,Best response CR or CRh,Any prior therapy (n = 32),9 (28) n (%)
same,Best response CRh,Any prior therapy (n = 32),5 (16) n (%)
same,Best response NE (not evaluable),Any prior therapy (n = 32),1 (3) n (%)
same,Best response PD,Any prior therapy (n = 32),0 n (%)
same,Best response PR,Any prior therapy (n = 32),11 (34) n (%)
same,Best response SD,Any prior therapy (n = 32),9 (28) n (%)
same,ORR (CR + CRh + PR + CI),Any prior therapy (n = 32),22 (69) n (%)
same,Best response CI (clinical improvement),MCL (n = 13),2 (15) n (%)
same,Best response CR,MCL (n = 13),3 (23) n (%)
same,Best response CR or CRh,MCL (n = 13),3 (23) n (%)
same,Best response CRh,MCL (n = 13),0 n (%)
same,Best response NE (not evaluable),MCL (n = 13),0 n (%)
same,Best response PD,MCL (n = 13),0 n (%)
same,Best response PR,MCL (n = 13),4 (31) n (%)
same,Best response SD,MCL (n = 13),4 (31) n (%)
same,ORR (CR + CRh + PR + CI),MCL (n = 13),9 (69) n (%)
same,Best response CI (clinical improvement),Midostaurin naïve (n = 36),2 (6) n (%)
same,Best response CR,Midostaurin naïve (n = 36),6 (17) n (%)
same,Best response CR or CRh,Midostaurin naïve (n = 36),16 (44) n (%)
same,Best response CRh,Midostaurin naïve (n = 36),10 (28) n (%)
same,Best response NE (not evaluable),Midostaurin naïve (n = 36),0 n (%)
same,Best response PD,Midostaurin naïve (n = 36),0 n (%)
same,Best response PR,Midostaurin naïve (n = 36),12 (33) n (%)
same,Best response SD,Midostaurin naïve (n = 36),6 (17) n (%)
same,ORR (CR + CRh + PR + CI),Midostaurin naïve (n = 36),30 (83) n (%)
same,Best response CI (clinical improvement),No prior therapy (n = 21),1 (5) n (%)
same,Best response CR,No prior therapy (n = 21),4 (19) n (%)
same,Best response CR or CRh,No prior therapy (n = 21),10 (48) n (%)
same,Best response CRh,No prior therapy (n = 21),6 (29) n (%)
same,Best response NE (not evaluable),No prior therapy (n = 21),0 n (%)
same,Best response PD,No prior therapy (n = 21),0 n (%)
same,Best response PR,No prior therapy (n = 21),7 (33) n (%)
same,Best response SD,No prior therapy (n = 21),3 (14) n (%)
same,ORR (CR + CRh + PR + CI),No prior therapy (n = 21),18 (86) n (%)
same,Best response CI (clinical improvement),[2],1 (6) n (%)
same,Best response CR,[2],2 (12) n (%)
same,Best response CR or CRh,[2],3 (18) n (%)
same,Best response CRh,[2],1 (6) n (%)
same,Best response NE (not evaluable),[2],1 (6) n (%)
same,Best response PD,[2],0 n (%)
same,Best response PR,[2],6 (35) n (%)
same,Best response SD,[2],6 (35) n (%)
same,ORR (CR + CRh + PR + CI),[2],10 (59) n (%)
same,Best response CI (clinical improvement),SM-AHN (n = 37),1 (3) n (%)
same,Best response CR,SM-AHN (n = 37),5 (14) n (%)
same,Best response CR or CRh,SM-AHN (n = 37),14 (38) n (%)
same,Best response CRh,SM-AHN (n = 37),9 (24) n (%)
same,Best response NE (not evaluable),SM-AHN (n = 37),1 (3) n (%)
same,Best response PD,SM-AHN (n = 37),0 n (%)
same,Best response PR,SM-AHN (n = 37),13 (35) n (%)
same,Best response SD,SM-AHN (n = 37),8 (22) n (%)
same,ORR (CR + CRh + PR + CI),SM-AHN (n = 37),28 (76) n (%)
same,Median time to achieve CR/CRh,all starting doses,9 months
same,Median time to achieve PR or better (CR/CRh/PR),"all starting doses, range, 2–27 months",2 months
same,CR rate,midostaurin-naïve patients (6/36),17%
same,CRh rate,midostaurin-naïve patients (10/36),28%
same,CR/CRh rate,midostaurin-naïve patients (16/36),44%
same,ORR,midostaurin-naïve patients (30/36),83%
same,"Patients with clinical improvement in C-finding: thrombocytopenia, transfusion dependent","of 1 patient with C-finding at baseline, response-evaluable population (n = 53)",0 (0) n (%)
same,"Patients with clinical improvement in C-finding: anemia, transfusion dependent",[3],1 (50) n (%)
same,Patients with clinical improvement in C-finding: pleural effusions,[3],2 (100) n (%)
same,Patients with clinical improvement in C-finding: neutropenia,"of 3 patients with C-finding at baseline, response-evaluable population (n = 53)",0 (0) n (%)
same,Patients with clinical improvement in C-finding: direct bilirubin >1.5 × ULN,"of 6 patients with C-finding at baseline, response-evaluable population (n = 53)",1 (17) n (%)
same,Patients with clinical improvement in C-finding: hypoalbuminemia,"of 7 patients with C-finding at baseline, response-evaluable population (n = 53)",4 (57) n (%)
same,Patients with clinical improvement in C-finding: ascites,"of 10 patients with C-finding at baseline, response-evaluable population (n = 53)",4 (40) n (%)
same,"Patients with clinical improvement in C-finding: anemia, transfusion independent","of 15 patients with C-finding at baseline, response-evaluable population (n = 53)",3 (20) n (%)
same,Patients with clinical improvement in C-finding: ALP >2.5 × ULN,[4],12 (67) n (%)
same,"Patients with clinical improvement in C-finding: thrombocytopenia, transfusion independent",[4],4 (22) n (%)
same,Patients with clinical improvement in C-finding: splenomegaly ≥5 cm,"of 28 patients with C-finding at baseline, response-evaluable population (n = 53)",24 (86) n (%)
same,ORR,patients with co-mutations in S/A/R genes,74%
same,ORR,patients with prior midostaurin exposure (10/17),59%
same,ORR,patients without S/A/R co-mutations,77%
same,CRh rate,prior midostaurin exposure (1/17),6%
same,CR rate,prior midostaurin exposure (2/17),12%
same,CR/CRh rate,prior midostaurin exposure (3/17),18%
same,Median time to clinical improvement: ALP >2.5 × ULN,[5],2.9 months
same,"Median time to clinical improvement: anemia, transfusion dependent",[5],0.3 months
same,"Median time to clinical improvement: anemia, transfusion independent",[5],3.7 months
same,Median time to clinical improvement: ascites,[5],7.4 months
same,Median time to clinical improvement: direct bilirubin >1.5 × ULN,[5],8.3 months
same,Median time to clinical improvement: hypoalbuminemia,[5],3.3 months
same,Median time to clinical improvement: pleural effusions,[5],1.9 months
same,Median time to clinical improvement: splenomegaly ≥5 cm,[5],1.9 months
same,"Median time to clinical improvement: thrombocytopenia, transfusion independent",[5],3.1 months
same,Median time to PR or better (CR/CRh/PR),"starting doses of 200, 300 or 400 mg (≥200 mg QD)",2 months
